Our source for the CC50 and inhibition values is patent US20140303164A1, “THERAPEUTIC COMPOUNDS” (Gilead Sciences, Inc., priority 2013, published 2014).

The nature of data set [1]: Test B: Cytotoxicity Assay. The format is cell-based. Particulars: human, uninfected MT-4 cells, same protocol as Test A. How it is done:
(§1) MT-4 cells were next mixed with HIV-IIIb at an m.o.i of 0.003 for 1 hour, after which time 35 μL of virus/cell mixture (2000 cells) was immediately added to each well containing 40 μL of diluted compound. The plates were then incubated at 37° C. for 5 days. […] Cell lysis was carried out by incubating at room temperature for 10 min and then chemiluminescence was read.
Test B: Cytotoxicity Assay
Compound cytotoxicity and the corresponding CC50 values was determined using the same protocol as described in the antiviral assay (Test A) except that uninfected cells were used.

For data set [2], the system named is HIV-IIIb. Put plainly: Test A: Antiviral Assay in MT4 Cells. The following applies: Human immunodeficiency virus 1, IIIB, MT4, 120 h; for inhibition at 0.2 µM: read-out: % inhibition at 0.2 μM; for inhibition at 2 µM: read-out: % inhibition at 2 μM. The format is cell-based, HIV-1. How it is done:
Test A: Antiviral Assay in MT4 Cells
as §1

Regarding `Cc1c(-c2ccc(C#CC(C)(C)O)nc2[C@H](Cc2cc(F)cc(F)c2)NC(=O)Cn2nc(C(F)F)c3c2C(F)(F)[C@@H]2C[C@H]32)ccc2n[nH]c(=O)n12` [Compound 38, 2-((3b-S,4aR)-3-(difluoromethyl)-5,5-difluoro-3b,4,4a,5-tetrahydro-1H-cyclopropa[3,4]cyclopenta[1,2-c]pyrazol-1-yl)-N—((S)-2-(3,5-difluorophenyl)-1-(6-(3-hydroxy-3-methylbut-1-yn-1-yl)-3-(5-methyl-3-oxo-2,3-dihydro-[1,2,4]triazolo[4,3-a]pyridin-6-yl)pyridin-2-yl)ethyl)acetamide], half-maximal cytotoxicity in data set [1] (CC50 at 5 days) was put at 13.5 µM. In data set [2], the inhibition at 0.2 µM was determined as 96% and the inhibition at 2 µM was determined as 96%.
For `Cn1nc(N)c2c(Cl)ccc(-c3ccc(C#CC(C)(C)O)nc3[C@H](Cc3cc(F)cc(F)c3)NC(=O)Cn3nc(C(F)(F)F)c4c3C(F)(F)[C@@H]3C[C@H]43)c21` [Compound 55C, N—((S)-1-(3-(3-amino-4-chloro-1-methyl-1H-indazol-7-yl)-6-(3-hydroxy-3-methylbut-1-yn-1-yl)pyridin-2-yl)-2-(3,5-difluorophenyl)ethyl)-2-((3b-S,4aR)-5,5-difluoro-3-(trifluoromethyl)-3b,4,4a,5-tetrahydro-1H-cyclopropa[3,4]cyclopenta[1,2-c]pyrazol-1-yl)acetamide], the 50% cytotoxic concentration (CC50) at 5 days in data set [1] was 9.56 µM. In data set [2], the inhibition at 0.2 µM amounted to 92% and the inhibition at 2 µM was 92%.
Compound `Cn1nc(NC(=O)C(F)F)c2c(Cl)ccc(-c3ccc(C#CC(C)(C)O)nc3[C@H](Cc3cc(F)cc(F)c3)NC(=O)Cn3nc(C(F)F)c4c3C(F)(F)[C@@H]3C[C@H]43)c21` [Compound 97, N-(4-chloro-7-(2-((S)-1-(2-((3b-S,4aR)-3-(difluoromethyl)-5,5-difluoro-3b,4,4a,5-tetrahydro-1H-cyclopropa[3,4]cyclopenta[1,2-c]pyrazol-1-yl)acetamido)-2-(3,5-difluorophenyl)ethyl)-6-(3-hydroxy-3-methylbut-1-yn-1-yl)pyridin-3-yl)-1-methyl-1H-indazol-3-yl)-2,2-difluoroacetamide] displayed a half-maximal cytotoxic concentration (CC50) at 5 days in data set [1] of 7.6 µM. In addition, in data set [2], the inhibition at 0.2 µM stood at 100% and the inhibition at 2 µM was determined as 100%.
As for `Cn1nc(NS(=O)(=O)c2cn[nH]c2)c2cccc(-c3ccc(C#CC(C)(C)O)nc3[C@H](Cc3cc(F)cc(F)c3)NC(=O)Cn3nc(C(F)(F)F)c4c3C(F)(F)[C@@H]3C[C@H]43)c21` [Compound 49, 2-((3bS,4aR)-5,5-difluoro-3-(trifluoromethyl)-3b,4,4a,5-tetrahydro-1H-cyclopropa[3,4]cyclopenta[1,2-c]pyrazol-1-yl)-N—((S)-2-(3,5-difluorophenyl)-1-(6-(3-hydroxy-3-methylbut-1-yn-1-yl)-3-(1-methyl-3-(1H-pyrazole-4-sulfonamido)-1H-indazol-7-yl)pyridin-2-yl)ethyl)acetamide], in data set [1], the midpoint of cytotoxicity, the CC50 at 5 days, lay at 24 µM. In data set [2], the inhibition at 0.2 µM came out at 87% and the inhibition at 2 µM was 87%.
In data set [1], `CC(C)(O)C#Cc1ccc(-c2cccn3c(NCC(F)(F)F)nnc23)c([C@H](Cc2cc(F)cc(F)c2)NC(=O)Cn2nc(C(F)F)c3c2C(F)(F)[C@@H]2C[C@H]32)n1` [Compound 117F, 2-((3b-S,4aR)-3-(difluoromethyl)-5,5-difluoro-3b,4,4a,5-tetrahydro-1H-cyclopropa[3,4]cyclopenta[1,2-c]pyrazol-1-yl)-N—((S)-2-(3,5-difluorophenyl)-1-(6-(3-hydroxy-3-methylbut-1-yn-1-yl)-3-(3-((2,2,2-trifluoroethyl)amino)-[1,2,4]triazolo[4,3-a]pyridin-8-yl)pyridin-2-yl)ethyl)acetamide] registered a cytotoxic concentration (CC50) at 5 days of 27.8 µM. In addition, in data set [2], the inhibition at 0.2 µM was determined as 93% and the inhibition at 2 µM was determined as 100%.

As usually defined, the CC50 is the concentration at which the toxic effect on the cells reaches its halfway point. The low end stands for harm at low concentration, the high end for better tolerance by the cells. For orientation: inhibition means the relative decrease from the control value, in per cent.
